Counter-ions that a name gives are not always drawn.
Key:
Son of Sevenless (SOS) = target: T1, Son of Sevenless (SOS) (Homo sapiens, UniProt Q07889); assay: Binding to SOS, fluorescence polarization anisotropy (FPA) probe displacement; settings: displacement of FITC-conjugated probe (Example 285), affinity calculated from IC50
T1 sequence (Q07889 564-1049 limits assumed): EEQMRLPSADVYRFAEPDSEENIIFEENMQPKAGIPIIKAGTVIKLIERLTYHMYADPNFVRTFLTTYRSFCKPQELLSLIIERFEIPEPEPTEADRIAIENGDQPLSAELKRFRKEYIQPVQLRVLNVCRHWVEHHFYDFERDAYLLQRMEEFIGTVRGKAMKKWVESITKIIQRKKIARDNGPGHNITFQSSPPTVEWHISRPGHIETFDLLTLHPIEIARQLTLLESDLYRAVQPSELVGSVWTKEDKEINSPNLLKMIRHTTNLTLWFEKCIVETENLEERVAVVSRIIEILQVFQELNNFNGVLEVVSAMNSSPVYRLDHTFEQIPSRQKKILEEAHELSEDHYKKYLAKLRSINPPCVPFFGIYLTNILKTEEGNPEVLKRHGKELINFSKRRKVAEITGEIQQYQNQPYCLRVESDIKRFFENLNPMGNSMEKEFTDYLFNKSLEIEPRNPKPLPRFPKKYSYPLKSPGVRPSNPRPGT
Protocol: Compounds of the present invention were tested for their ability to bind to the Ras guanine exchange factor (GEF) Son of Sevenless (SOS). Binding to SOS was measured using a Fluorescence polarization anisotropy (FPA) assay that assesses the ability of a test compound to displace a fluorescent FITC-conjugated compound (Example 285). Briefly, the labeled probe compound is incubated with SOS in buffer. Changes in anisotropy indicative of displacement of the labeled probe for a test compound are assessed over a dose range of test compound. Data was analyzed by plotting fluorescence anisotropy values as a function of compound concentration. IC50 values were determined using a four-parameter dose-response (variable slope) and binding affinities were calculated from this IC50 value. This assay is performed in a method analogous to the assay disclosed in: Burns, M. C.; Sun, Q.; Daniels, R. N.; Camper, D. V.; Kennedy, J. P.; Phan, J.; Olejniczak, E. O.; Lee, T.; Waterson, A. G.; Rossanese, O. W.; Fesik, S. W. “Approach for targeting Ras with small molecules that activate SOS-mediated nucleotide exchange” Proc. Natl. Acad. Sci. 2014; 11(9): 3401-3406. PMCID: PMC3948241.

[1] = target: Ras GEF SOS (Son of Sevenless) (Homo sapiens, UniProt Q07889); assay: SOS-mediated nucleotide exchange on Ras (BODIPY-GDP fluorescence); type: biochemical; settings: SOS-mediated exchange of BODIPY-GDP for GTP on Ras
Protocol: Compounds of the present invention were tested for their ability to modify the rate at which Ras exchanges a labeled nucleotide guanosine diphosphate (GDP) analog for guanosine triphosphate (GTP). Briefly, test compounds, then GTP and the Ras GEF SOS (Son of Sevenless) are added to a buffered solution containing Ras protein loaded with BODIPY-GDP. Changes in fluoresence indicating exchange of the labeled GDP for GTP are monitored over time. Raw fluorescence data was fit to a single exponential decay function and derived rates were plotted as mean values. EC50 values were calculated by plotting mean derived rates as a function of compound concentration and fit using a four-parameter dose-response curve. This assay is performed in a method analogous to the assay disclosed in: Burns, M. C.; Sun, Q.; Daniels, R. N.; Camper, D. V.; Kennedy, J. P.; Phan, J.; Olejniczak, E. O.; Lee, T.; Waterson, A. G.; Rossanese, O. W.; Fesik, S. W. “Approach for targeting Ras with small molecules that activate SOS-mediated nucleotide exchange” Proc. Natl. Acad. Sci. 2014; 11(9): 3401-3406. PMCID: PMC3948241.

Sequence of Ras GEF SOS (Son of Sevenless) (P01112 1-166 partner limits assumed, one chain of several): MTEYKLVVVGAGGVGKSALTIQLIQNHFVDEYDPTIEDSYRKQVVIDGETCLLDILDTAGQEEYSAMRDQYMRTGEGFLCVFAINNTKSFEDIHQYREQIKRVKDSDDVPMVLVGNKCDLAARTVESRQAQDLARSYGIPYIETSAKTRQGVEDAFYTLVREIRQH

Row | Ki (Son of Sevenless (SOS)) [µM] | EC50 [1] [µM] | SMILES
1 | 1 to 5 | 1 to 5 | Cc1cc2nc(NCCN)n(Cc3ccc(F)c(Cl)c3)c2cc1C [Example 17, N1-(1-(3-chloro-4-fluorobenzyl)-5,6-dimethyl-1H-benzo[d]imidazol-2-yl)ethane-1,2-diamine trifluoroacetate]
2 | > 5 | 5 to 30 | Cc1cc2nc(N3CCNCC3)n(Cc3ccc(Cl)cc3)c2cc1C [Example 19, 1-(4-chlorobenzyl)-5,6-dimethyl-2-(piperazin-1-yl)-1H-benzo[d]imidazole trifluoroacetate]
3 | > 5 | 5 to 30 | Cc1cc2nc(NCCN)n(Cc3ccc(Cl)cc3)c2cc1C [Example 20, N^1-(1-(4-chlorobenzyl)-5,6-dimethyl-1H-benzo[d]imidazol-2-yl)ethane-1,2-diamine trifluoroacetate]
4 | > 5 | 5 to 30 | Cc1cc2nc(N3CCNCC3)n(Cc3ccc(F)cc3)c2cc1C [Example 21, 1-(4-fluorobenzyl)-5,6-dimethyl-2-(piperazin-1-yl)-1H-benzo[d]imidazole trifluoroacetate]
5 | > 5 | 5 to 30 | Cc1cc2nc(NCCN)n(Cc3ccc(F)cc3)c2cc1C [Example 22, N^1-(1-(4-fluorobenzyl)-5,6-dimethyl-1H-benzo[d]imidazol-2-yl)ethane-1,2-diamine trifluoroacetate]
6 | > 5 | 5 to 30 | Cc1cc2nc(NCCO)n(Cc3ccc(F)c(Cl)c3)c2cc1C [Example 26, 2-((1-(3-chloro-4-fluorobenzyl)-5,6-dimethyl-1H-benzo[d]imidazol-2-yl)amino)ethan-1-ol]
7 | > 5 | 1 to 5 | Cc1cc2nc(NCCN)n(Cc3cccc(C(F)(F)F)c3)c2cc1C [Example 33, N^1-(5,6-dimethyl-1-(3-(trifluoromethyl)benzyl)-1H-benzo[d]imidazol-2-yl)ethane-1,2-diamine trifluoroacetate]
8 | 1 to 5 | 1 to 5 | Cc1cc2nc(NCCN)n(Cc3cccc(Br)c3)c2cc1C [Example 35, N^1-(1-(3-bromobenzyl)-5,6-dimethyl-1H-benzo[d]imidazol-2-yl)ethane-1,2-diamine trifluoroacetate]
9 | > 5 | – | Cc1cc2nc(S(=O)(=O)CCN)n(Cc3ccc(F)c(Cl)c3)c2cc1C [Example 211, 2-((1-(3-chloro-4-fluorobenzyl)-5,6-dimethyl-1H-benzo[d]imidazol-2-yl)sulfonyl)ethan-1-amine trifluoroacetate]

The remaining lines, values behind:

Row | SMILES | Ki (Son of Sevenless (SOS)) [µM] | EC50 [1] [µM]
10 | CCCN1CC[C@@H](C(=O)c2ccccc2)C1c1cc(Cl)cc2c1nc(N1CCNCC1)n2Cc1cc(C)c(F)c(C)c1 (stereo in doubt) [Example 149, ((2S,3R)-2-(6-chloro-1-(4-fluoro-3,5-dimethylbenzyl)-2-(piperazin-1-yl)-1H-benzo[d]imidazol-4-yl)-1-propylpyrrolidin-3-yl)(phenyl)methanone trifluoroacetate] | 1 to 5 | 5 to 30
11 | CCCN1CC[C@@H](C(=O)c2ccccc2)C1c1cc(Cl)cc2c1nc(N1CCNCC1)n2Cc1ccc(F)c(Cl)c1 (stereo in doubt) [Example 154, ((2S,3R)-2-(6-chloro-1-(3-chloro-4-fluorobenzyl)-2-(piperazin-1-yl)-1H-benzo[d]imidazol-4-yl)-1-propylpyrrolidin-3-yl)(phenyl)methanone trifluoroacetate] | 1 to 5 | 1 to 5
12 | Fc1ccc(Cn2c(N3CCNCC3)nc3ccccc32)cc1Cl [Example 7, 1-(3-chloro-4-fluorobenzyl)-2-(piperazin-1-yl)-1H-benzo[d]imidazole trifluoroacetate] | > 5 | 5 to 30
13 | Fc1ccc(Cn2c(N3CCNCC3)nc3ccccc32)cc1 [Example 10, 1-(4-fluorobenzyl)-2-(piperazin-1-yl)-1H-benzo[d]imidazole trifluoroacetate] | > 5 | 30 to 100
14 | Cc1cc2nc(N3CCNCC3)n(Cc3ccc(F)c(Cl)c3)c2cc1C [Example 16, 1-(3-chloro-4-fluorobenzyl)-5,6-dimethyl-2-(piperazin-1-yl)-1H-benzo[d]imidazole trifluoroacetate] | 1 to 5 | 1 to 5
15 | Cc1cc2nc(N3CCNCC3)n(Cc3cc(F)cc(F)c3)c2cc1C [Example 18, 1-(3,5-difluorobenzyl)-5,6-dimethyl-2-(piperazin-1-yl)-1H-benzo[d]imidazole trifluoroacetate] | > 5 | 5 to 30
16 | Cc1cc2nc(N3CCN(C)CC3)n(Cc3ccc(F)cc3)c2cc1C [Example 24, 1-(4-fluorobenzyl)-5,6-dimethyl-2-(4-methylpiperazin-1-yl)-1H-benzo[d]imidazole trifluoroacetate] | > 5 | 1 to 5
17 | Cc1cc2nc(NCCN3CCOCC3)n(Cc3cc(F)cc(F)c3)c2cc1C [Example 31, 1-(3,5-difluorobenzyl)-5,6-dimethyl-N-(2-morpholinoethyl)-1H-benzo[d]imidazol-2-amine trifluoroacetate] | > 5 | 5 to 30
18 | Cc1cc2nc(N3CCNCC3)n(Cc3cccc(Br)c3)c2cc1C [Example 34, 1-(3-bromobenzyl)-5,6-dimethyl-2-(piperazin-1-yl)-1H-benzo[d]imidazole trifluoroacetate] | > 5 | 5 to 30
19 | Cc1cc2nc(N3CCCNCC3)n(Cc3ccc(F)c(Cl)c3)c2cc1C [Example 36, 1-(3-chloro-4-fluorobenzyl)-2-(1,4-diazepan-1-yl)-5,6-dimethyl-1H-benzo[d]imidazole trifluoroacetate] | > 5 | 5 to 30
20 | CCCNC(=O)c1cnn(CC(C)C)c1-c1cc(C)cc2c1nc(N1CCNCC1)n2Cc1cc(C)c(F)c(C)c1 [Example 181, 5-(1-(4-fluoro-3,5-dimethylbenzyl)-6-methyl-2-(piperazin-1-yl)-1H-benzo[d]imidazol-4-yl)-1-isobutyl-N-propyl-1H-pyrazole-4-carboxamide trifluoroacetate] | 0.5 to 1 | –
21 | Cc1cc(N2CCN(C(C)C)CC2)c2nc(N3CCNCC3)n(Cc3cc(C)c(F)c(C)c3)c2c1 [Example 194, 1-(4-fluoro-3,5-dimethylbenzyl)-4-(4-isopropylpiperazin-1-yl)-6-methyl-2-(piperazin-1-yl)-1H-benzo[d]imidazole trifluoroacetate] | 0.5 to 1 | –
22 | Cc1cc(OCCNCCO)c2nc(N3CCNCC3)n(Cc3cc(C)c(F)c(C)c3)c2c1 [Example 199, 2-((2-((1-(4-fluoro-3,5-dimethylbenzyl)-6-methyl-2-(piperazin-1-yl)-1H-benzo[d]imidazol-4-yl)oxy)ethyl)amino)ethan-1-ol] | 0.5 to 1 | –
23 | Cc1cc(O[C@H]2CCNC2)c2nc(N3CCNCC3)n(Cc3cc(C)c(F)c(C)c3)c2c1 [Example 200, (S)-1-(4-fluoro-3,5-dimethylbenzyl)-6-methyl-2-(piperazin-1-yl)-4-(pyrrolidin-3-yloxy)-1H-benzo[d]imidazole] | > 5 | –
24 | Cc1cc(OCC2CCNCC2)c2nc(N3CCNCC3)n(Cc3cc(C)c(F)c(C)c3)c2c1 [Example 202, 1-(4-fluoro-3,5-dimethylbenzyl)-6-methyl-2-(piperazin-1-yl)-4-(piperidin-4-ylmethoxy)-1H-benzo[d]imidazole] | 0.5 to 1 | –
25 | Cc1cc2nc(N3C[C@@H](C)N[C@@H](C)C3)n(Cc3cc(C)c(F)c(C)c3)c2cc1C [Example 336, 2-((3S,5R)-3,5-dimethylpiperazin-1-yl)-1-(4-fluoro-3,5-dimethylbenzyl)-5,6-dimethyl-1H-benzo[d]imidazole] | 1 to 5 | –

— patent US10501421B1, “Substituted benzimidazoles as modulators of Ras signaling” (VANDERBILT UNIVERSITY, priority 2017, dated 2019)
